TGI data for seven molecules are collected here from PubChem BioAssay (NCI).

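How tested: cells in 96-well plates exposed to compound for 48 hours at five concentrations. At the TGI there is no net growth.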

Among the test systems are OVCAR-5 ovarian; COLO 205 colon; A549 NSCLC; MOLT-4 leukemia; UACC-62 melanoma; A498 renal; 786-0 renal; DU-145 prostate; TK-10 renal; SNB-19 CNS; BT-549 breast; U251 CNS; HCT-15 colon; MCF7 breast; SK-MEL-2 melanoma; NCI/ADR-RES ovarian; SNB-75 CNS; UACC-257 melanoma; HCC-2998 colon.
Assay in all cases: NCI anticancer screen, dose series, 48 h

On to `COc1cc(C2=C(c3cc(OC)c4ccccc4c3OC)C(=O)c3ccccc3C2=O)c(OC)c2ccccc12`, for which the TGI with OVCAR-5 ovarian, in the assay with COLO 205 colon, in the assay on A549 NSCLC, in the assay with MOLT-4 leukemia, in the assay with UACC-62 melanoma and in the assay on A498 renal was > 100 µM throughout. The TGI in the assay on 786-0 renal, in the assay with DU-145 prostate, in the assay with TK-10 renal, with SNB-19 CNS, with BT-549 breast and with U251 CNS was > 100 µM each time. Moreover, the TGI in the assay with HCT-15 colon, with MCF7 breast, in the assay on SK-MEL-2 melanoma, with NCI/ADR-RES ovarian, in the assay with SNB-75 CNS and in the assay with UACC-257 melanoma was > 100 µM each time.
Turning to `CN1CCc2c3n(c4cc(Br)ccc24)[C@H](O)CCCC31` (stereo not given in full), the TGI with OVCAR-5 ovarian was > 10 µM; in the assay with COLO 205 colon, 3.24 µM; with A549 NSCLC it was > 10 µM; in the assay with HCC-2998 colon it was 3.16 µM; in the assay with MOLT-4 leukemia it was 3.97 µM; with A498 renal, > 10 µM. Besides, the TGI is 3.08 µM in the assay with 786-0 renal; > 10 µM in the assay with DU-145 prostate; > 10 µM in the assay with TK-10 renal; > 10 µM in the assay with SNB-19 CNS; > 10 µM in the assay with BT-549 breast; 3.35 µM in the assay on U251 CNS. Moreover, the TGI in the assay on HCT-15 colon is > 5.77 µM; with MCF7 breast, 3.24 µM; in the assay on SK-MEL-2 melanoma, 1.7 µM; in the assay on NCI/ADR-RES ovarian, > 10 µM; in the assay with SNB-75 CNS it was 5.83 µM; in the assay on UACC-257 melanoma it was 5.61 µM.
As to `S=c1nc(N2CCCCC2)c2cn[nH]c2[nH]1`, the TGI in the assay on OVCAR-5 ovarian, in the assay on COLO 205 colon, with A549 NSCLC, in the assay with HCC-2998 colon, with UACC-62 melanoma and in the assay with A498 renal was > 100 µM in each case. In addition, the TGI with 786-0 renal, in the assay on DU-145 prostate, in the assay with TK-10 renal, in the assay with SNB-19 CNS, in the assay with BT-549 breast and in the assay with U251 CNS was > 100 µM each time. The TGI is > 100 µM in the assay on HCT-15 colon; > 100 µM in the assay with MCF7 breast; 74.8 µM in the assay on SK-MEL-2 melanoma; > 100 µM in the assay on NCI/ADR-RES ovarian; > 100 µM in the assay on SNB-75 CNS; > 100 µM with UACC-257 melanoma.
As to `O=C1Nc2ccccc2C1=Nc1cccc2ncccc12`, the TGI in the assay with OVCAR-5 ovarian, in the assay with COLO 205 colon, in the assay with A549 NSCLC, with MOLT-4 leukemia, in the assay with UACC-62 melanoma and with A498 renal was > 100 µM throughout. Also, the TGI in the assay on 786-0 renal, in the assay on DU-145 prostate, in the assay on TK-10 renal, with SNB-19 CNS, in the assay on BT-549 breast and with U251 CNS was > 100 µM throughout. Further, the TGI in the assay with HCT-15 colon, with MCF7 breast, with SK-MEL-2 melanoma, in the assay on NCI/ADR-RES ovarian, in the assay on SNB-75 CNS and in the assay on UACC-257 melanoma was > 100 µM throughout.
As to `CN(C)CCCNC(=O)c1c(O)c2ccccc2[nH]c1=O`, the TGI in the assay on OVCAR-5 ovarian, in the assay with COLO 205 colon, in the assay on A549 NSCLC, with HCC-2998 colon, with MOLT-4 leukemia and with UACC-62 melanoma was > 100 µM in each case. The TGI in the assay on A498 renal, in the assay on 786-0 renal, in the assay on DU-145 prostate, in the assay on TK-10 renal, in the assay with BT-549 breast and in the assay on HCT-15 colon was > 100 µM throughout. Besides, the TGI with MCF7 breast, in the assay on SK-MEL-2 melanoma, in the assay on NCI/ADR-RES ovarian, with SNB-75 CNS and in the assay on UACC-257 melanoma was > 100 µM each time.
With `COc1ccc(OC)c(-c2nc3n(c2/C=C2/C(=O)Nc4ccccc42)CCS3)c1`, the TGI was > 100 µM in the assay with OVCAR-5 ovarian; > 100 µM in the assay on COLO 205 colon; > 100 µM in the assay on A549 NSCLC; 78.2 µM in the assay on MOLT-4 leukemia; > 100 µM in the assay with UACC-62 melanoma; > 100 µM in the assay with A498 renal. The TGI in the assay with 786-0 renal, in the assay with DU-145 prostate, in the assay with TK-10 renal, in the assay on SNB-19 CNS, in the assay with BT-549 breast and in the assay with U251 CNS was > 100 µM throughout. Besides, the TGI is > 100 µM in the assay with HCT-15 colon; > 100 µM in the assay with MCF7 breast; 79 µM with SK-MEL-2 melanoma; > 100 µM in the assay on NCI/ADR-RES ovarian; 83 µM with SNB-75 CNS; > 100 µM in the assay with UACC-257 melanoma.
With `N#CC(C#N)=C1c2ccccc2C(=NN)c2ccccc21`, the TGI in the assay on OVCAR-5 ovarian, in the assay with COLO 205 colon, with HCC-2998 colon, in the assay with MOLT-4 leukemia, with UACC-62 melanoma and with A498 renal was > 100 µM each time. The TGI in the assay on 786-0 renal, in the assay on DU-145 prostate, in the assay with TK-10 renal, with SNB-19 CNS, with BT-549 breast and in the assay with U251 CNS was > 100 µM in each case. Besides, the TGI with HCT-15 colon, in the assay on MCF7 breast, with SK-MEL-2 melanoma, in the assay on NCI/ADR-RES ovarian, with SNB-75 CNS and in the assay on UACC-257 melanoma was > 100 µM throughout.
